Measurements published in patent US20220279826A1, “OFF-FLAVOR SUPPRESSING AGENT” (AJINOMOTO CO., INC., priority 2019, published 2022).

Experiments:
[1] = Sensory evaluation in soy protein aqueous solution (Experimental Example 13); conditions: Table 27
Procedure: Each compound shown in the following Table 27 was added to an aqueous solution prepared by dissolving powdered soy protein (4 parts by weight) in water (96 parts by weight) (hereinafter at times referred to as soy protein aqueous solution) so as to achieve the concentration (addition concentration) shown in the following Table 27 to prepare each evaluation sample. Here, the powdered soy protein manufactured by FUJI OIL CO., LTD. was used.
(§1) Based on the following evaluation criteria, a panel of four experts determined by consensus the intensity of off-tastes (bitter taste, harsh taste, astringent taste) derived from soy protein in each evaluation sample, by comparison with a soy protein aqueous solution without addition of any compound (negative control).

[2] = Sensory evaluation in ramen noodle soup solution with potassium chloride (Experimental Example 3); conditions: for off-taste suppressing effect: Ramen noodle soup solution with 0.8 wt % potassium chloride, addition concentration 10 ppb (1.25 weight ppm with respect to potassium chloride); for intensity of off-tastes (bitter taste, metallic taste, harsh taste, astringent taste) derived from potassium chloride: base solutions of Tables 15 to 17 (ramen noodle soup, chicken broth, potage)
Method in brief: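 Ramen soup base was prepared from instant soup powder (1.1 g), potassium chloride (0.8 g) and hot water (98.1 g), giving a potassium chloride off-taste. Compounds were added at set concentrations. Two expert panelists rated the intensity of bitter, metallic, harsh and astringent off-tastes.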

[3] = Sensory evaluation in 0.12 wt % aspartame aqueous solution (Experimental Example 12); conditions: Table 26
Procedure: (§2) Each compound shown in the following Table 26 was added to a 0.12 wt % aspartame aqueous solution (an aqueous solution prepared by dissolving aspartame (0.12 parts by weight) in ion exchange water (99.88 parts by weight)) so as to achieve the concentration (addition concentration) shown in the following Table 26 to prepare each evaluation sample.
as §1, with “of three” for “of four”, “taste, metallic” for “taste, astringent”, “from aspartame” for “from soy protein”, “a 0.12 wt % aspartame” for “a soy protein”

[4] = Sensory evaluation in BCAA sweetness aqueous solution (Experimental Example 6); parameters: key to off-taste suppressing effect: ±: no change from negative control; −: slightly suppressed compared to negative control; −−: suppressed compared to negative control (same level of intensity as BCAA sweetness aqueous solution in which total concentration of leucine, isoleucine, and valine (weight ratio=2:1:1) exceeds 0.8 wt % and is not more than 0.9 wt %); −−−: considerably suppressed compared to negative control (same level of intensity as BCAA sweetness aqueous solution in which total concentration of leucine, isoleucine, and valine (weight ratio=2:1:1) is not more than 0.8 wt %); conditions: for intensity of off-tastes (bitter taste, harsh taste) derived from amino acid (branched chain amino acid): summary of Table 20
Procedure: Each compound shown in the following Table 20 was added to an aqueous solution prepared by dissolving leucine (0.50 parts by weight), isoleucine (0.25 parts by weight), valine (0.25 parts by weight), and granulated sugar (4 parts by weight) in ion exchange water (95 parts by weight) (hereinafter at times referred to as BCAA sweetness aqueous solution) so as to achieve the concentration (addition concentration) shown in the following Table 20 to prepare each evaluation sample.
as §1, with “harsh” for “harsh taste, astringent”, “from amino acid” for “from soy protein”, “a BCAA sweetness” for “a soy protein”

[5] = Sensory evaluation in granular fava bean protein (Experimental Example 16); conditions: Table 30
Procedure: Each compound shown in the following Table 30 was added to granular fava bean protein (manufactured by Schouten) so as to achieve the concentration (addition concentration) shown in the following Table 30 to prepare each evaluation sample.
as §1, with “fava bean” for “soy”, “granular fava bean” for “a soy”, “protein” for “protein aqueous solution”

[6] = Sensory evaluation in 0.06 wt % acesulfame potassium aqueous solution (Experimental Example 10); conditions: summary of Table 24
Procedure: as §2, with “24” for “26”, “0.06” for “0.12”, “acesulfame potassium” for “aspartame”, “acesulfame potassium (0.06” for “aspartame (0.12”, “in” for “in ion exchange”, “(99.94” for “(99.88”
as §1, with “(bitter” for “(bitter taste, harsh taste, astringent”, “from acesulfame potassium” for “from soy protein”, “a 0.06 wt % acesulfame potassium” for “a soy protein”

[7] = Sensory evaluation of off-taste suppressing effect in 0.8 wt % potassium chloride aqueous solution (Experimental Examples 1 and 2)
[8] = addition concentration 1 weight ppb (0.1 weight ppm with respect to amino acid)
[9] = addition concentration 10 weight ppb (1 weight ppm with respect to amino acid)
[10] = addition concentration 50 weight ppb (5 weight ppm with respect to amino acid)
[11] = addition concentration 100 weight ppb (10 weight ppm with respect to amino acid)
[12] = 0.8 wt % potassium chloride aqueous solution, addition concentration 5 weight ppb (0.625 weight ppm with respect to potassium chloride)
[13] = 0.8 wt % potassium chloride aqueous solution, addition concentration 10 weight ppb (1.25 weight ppm with respect to potassium chloride)
[14] = 0.8 wt % potassium chloride aqueous solution, addition concentration 50 weight ppb (6.25 weight ppm with respect to potassium chloride)
[15] = 0.8 wt % potassium chloride aqueous solution, addition concentration 100 weight ppb (12.5 weight ppm with respect to potassium chloride)
[16] = in words, potassium chloride aqueous solutions, Tables 1 to 14
[17] = potassium chloride aqueous solutions, Tables 1 to 14

Row | SMILES | intensity of off-tastes (bitter taste, harsh taste, astringent taste) derived from soy protein [1] | off-taste suppressing effect [2] | intensity of off-tastes (bitter taste, metallic taste, harsh taste, astringent taste) derived from potassium chloride [2] | intensity of off-tastes (bitter taste, harsh taste, metallic taste) derived from aspartame [3] | off-taste suppressing effect [4, 8] | off-taste suppressing effect [4, 9] | off-taste suppressing effect [4, 10] | off-taste suppressing effect [4, 11] | intensity of off-tastes (bitter taste, harsh taste) derived from amino acid (branched chain amino acid) [4] | intensity of off-tastes (bitter taste, harsh taste, astringent taste) derived from fava bean protein [5] | intensity of off-tastes (bitter taste) derived from acesulfame potassium [6] | off-taste suppressing effect ([7]; 0.8 wt % potassium chloride aqueous solution, addition concentration 1 weight ppb (0.125 weight ppm with respect to potassium chloride)) | off-taste suppressing effect [7, 12] | off-taste suppressing effect [7, 13] | off-taste suppressing effect [7, 14] | off-taste suppressing effect [7, 15] | off-taste suppressing effect [7, 16] | intensity of off-tastes (bitter taste, metallic taste, harsh taste, astringent taste) derived from potassium chloride [7, 17]
1 | CC1=C(O)C(=O)CC1 [cyclotene] | suppressed | +++ (intensity of the same level as potassium chloride aqueous solution with potassium chloride concentration of not less than 0.65 wt % and less than 0.7 wt %) | decreased | suppressed | −− (suppressed compared to negative control (same level of intensity as BCAA sweetness aqueous solution in which total concentration of leucine, isoleucine, and valine (weight ratio=2:1:1) exceeds 0.8 wt % and is not more than 0.9 wt %)) | −− (suppressed compared to negative control (same level of intensity as BCAA sweetness aqueous solution in which total concentration of leucine, isoleucine, and valine (weight ratio=2:1:1) exceeds 0.8 wt % and is not more than 0.9 wt %)) | −− (suppressed compared to negative control (same level of intensity as BCAA sweetness aqueous solution in which total concentration of leucine, isoleucine, and valine (weight ratio=2:1:1) exceeds 0.8 wt % and is not more than 0.9 wt %)) | −− (suppressed compared to negative control (same level of intensity as BCAA sweetness aqueous solution in which total concentration of leucine, isoleucine, and valine (weight ratio=2:1:1) exceeds 0.8 wt % and is not more than 0.9 wt %)) | suppressed | suppressed | suppressed | + (intensity of the same level as potassium chloride aqueous solution with potassium chloride concentration of not less than 0.75 wt % and less than 0.8 wt %) | ++ (intensity of the same level as potassium chloride aqueous solution with potassium chloride concentration of not less than 0.7 wt % and less than 0.75 wt %) | +++ (intensity of the same level as potassium chloride aqueous solution with potassium chloride concentration of not less than 0.65 wt % and less than 0.7 wt %) | +++ (intensity of the same level as potassium chloride aqueous solution with potassium chloride concentration of not less than 0.65 wt % and less than 0.7 wt %) | ++ (intensity of the same level as potassium chloride aqueous solution with potassium chloride concentration of not less than 0.7 wt % and less than 0.75 wt %) | high | decreased
2 | O=Cc1ccco1 [furfural, Furfural] | suppressed | ++ (intensity of the same level as potassium chloride aqueous solution with potassium chloride concentration of not less than 0.7 wt % and less than 0.75 wt %) | decreased | suppressed | − | −− (suppressed compared to negative control (same level of intensity as BCAA sweetness aqueous solution in which total concentration of leucine, isoleucine, and valine (weight ratio=2:1:1) exceeds 0.8 wt % and is not more than 0.9 wt %)) | −− (suppressed compared to negative control (same level of intensity as BCAA sweetness aqueous solution in which total concentration of leucine, isoleucine, and valine (weight ratio=2:1:1) exceeds 0.8 wt % and is not more than 0.9 wt %)) | −− (suppressed compared to negative control (same level of intensity as BCAA sweetness aqueous solution in which total concentration of leucine, isoleucine, and valine (weight ratio=2:1:1) exceeds 0.8 wt % and is not more than 0.9 wt %)) | suppressed | suppressed | suppressed |  | + (intensity of the same level as potassium chloride aqueous solution with potassium chloride concentration of not less than 0.75 wt % and less than 0.8 wt %) | +++ (intensity of the same level as potassium chloride aqueous solution with potassium chloride concentration of not less than 0.65 wt % and less than 0.7 wt %) | +++ (intensity of the same level as potassium chloride aqueous solution with potassium chloride concentration of not less than 0.65 wt % and less than 0.7 wt %) | + (intensity of the same level as potassium chloride aqueous solution with potassium chloride concentration of not less than 0.75 wt % and less than 0.8 wt %) | high | decreased
